In publication PMC2658777, “Prodrugs of Fluoro-Substituted Benzoates of EGC as Tumor Cellular Proteasome Inhibitors and Apoptosis Inducers” (International Journal of Molecular Sciences, 2008):

Tests used:
[1] = molecular target: T1, purified rabbit 20S proteasome (chymotrypsin-like activity) (Oryctolagus cuniculus, UniProt G1T4Q9); experiment: Inhibition of the chymotrypsin-like activity of a purified 20S proteasome; type: biochemical; details: fluorogenic substrate, 2 h incubation
T1 construct: purchased Boston Biochem
T1 sequence (G1T4Q9 1-263): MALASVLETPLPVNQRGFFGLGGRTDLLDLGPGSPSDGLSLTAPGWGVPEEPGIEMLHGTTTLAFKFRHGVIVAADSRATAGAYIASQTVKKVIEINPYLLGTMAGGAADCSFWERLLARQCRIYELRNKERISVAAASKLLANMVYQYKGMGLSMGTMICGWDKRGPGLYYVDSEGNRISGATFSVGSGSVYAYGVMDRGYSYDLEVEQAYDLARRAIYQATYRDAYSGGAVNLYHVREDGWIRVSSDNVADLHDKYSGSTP
Experimental: We first tested the effect of these compounds on inhibiting the chymotrypsin-like activity of a purified 20S proteasome using purified EGCG as a positive control. Each of these compounds was incubated with a purified rabbit 20S proteasome and a fluorogenic substrate for chymotrypsin-like activity for 2 h. The half-maximal inhibitory concentration or IC50 was then determined.
Highly purified (-)-EGCG and dimethyl sulfoxide (DMSO) were purchased from Sigma-Aldrich. Purified 20S proteasome (rabbit) was purchased from Boston Biochem. Fluorogenic peptide substrate Suc-Leu-Leu-Val-Tyr-AMC (for the proteasomal chymotrypsin-like activity) was obtained from Calbiochem. Polyclonal antibody to ubiquitin, IκB-α̣ monoclonal anti-actin, anti-goat, anti-rabbit, and anti-mouse IgG-horseradish peroxidase were obtained from Santa Cruz Biotechnology Inc. Mouse monoclonal anitbody against human poly(ADP-ribose) polymerase (PARP) was purchased from Biomol International LP (Plymouth Meeting, PA). RPMI 1640, Penicillin and streptomycin were purchased from Invitrogen.

[2] = test system: Human leukemia Jurkat T cells; experiment: Trypan blue dye exclusion cell death assay; type: cell-based; details: 50 μM, 24 h
Experimental: We first tested whether these Pro-F-EGCGs could induce cell death in tumor cells. Human leukemia Jurkat T cells were treated with 50 μM of each analog for 24 h, followed by Trypan-blue exclusion assay. Blue cells and cells with apoptosis-associated morphological changes (shrunken, blebbing, etc) were scored as dead cells. Pro-EGCG (1) and DMSO were used as controls.
The Trypan blue dye exclusion assay was performed by mixing 20 μL of cell suspension with 20 μL of 0.4% Trypan blue dye before injecting into a hemocytometer and counting. The number of cells that absorbed the dye and those that exclude the dye were counted, from which percentage of nonviable cell number over the total cell number was calculated.
(§1) Human leukemia Jurkat T cells were cultured in RPMI 1640 medium supplemented with 10% fetal calf serum, 100 units/mL of penicillin, and 100 μg/mL of streptomycin. Cells were maintained at 37 °C in a humidified incubator with an atmosphere of 5% CO2. Jurkat T cells were treated by selected compounds at various concentrations for indicated hours (see figure legends for details), and a whole-cell extract was then prepared as described previously. Briefly, cells were harvested, washed with PBS, and homogenized in a lysis buffer (50 mM, Tris-HCl, pH 8.0, 150 mM NaCl, 0.5% NP-40, 0.5 mM penylmethylsulfonyl fluoride, and 0.5 mM dithiothreitol) at 4 °C. Afterwards, the lysates were centrifuged at 12,000 × g for 15 min at 4 °C and the supernatants collected as whole-cell extracts.

[3] = test system: human breast cancer xenografts; design: method as in PMID 17483343; details: human breast cancer xenografts in mice; cited from earlier work
[4] = design: method as in PMID 17477351; details: in vitro; cited from earlier work
Jurkat T cells = experiment: Western blot of ubiquitinated IκB-α (p56), ubiquitinated proteins and PARP cleavage; type: cell-based, human; details: for p56 IκB-α (ubiquitinated form), Western blot: 50 μM; for accumulation of ubiquitinated proteins, Western blot: Jurkat T cells, 10, 25 or 50 μM
Experimental: (§2) To study whether the induction of cell death by Pro-F-EGCG4 was due to its proteasome-inhibitory and apoptosis-inducing activities, Jurkat T cells were treated with 50 μM of Pro-F-EGCG4 and Pro-EGCG (1) as a control for 4, 8 and 24 h, followed by measurement of proteasome inhibition and apoptotic cell death. […] Previously, we reported that the p56 is an ubiquitinated form of IκB-α protein as a marker of proteasome inhibition, as verified by the immunoprecipitation-Western blot assay. […] Consistently, PARP cleavage fragment p85 was detected in Jurkat T cells treated with Pro-F-EGCG4 in a time-dependent manner (Fig. 3B). A p65 PARP fragment was also detected in cells treated with Pro-F-EGCG4 (Fig. 3B), indicating calpain activation occurred as well [14]. Apoptotic morphological changes were observed after 4 hours of treatment with Pro-F-EGCG4 (data not shown).
as §1
Analysis of IκB-α, PARP, and ubiquitinated proteins was performed using monoclonal or polyclonal antibodies, according to previously reported protocols.

[5] = test system: proteasomal chymotrypsin (CT)-like activity in Jurkat T cells; experiment: Cellular proteasomal chymotrypsin-like activity in extracts of treated cells; type: cell-based, human
Experimental: as §2
We then performed a dose-dependent experiment. Jurkat T cells were treated with Pro-F-EGCG4 or Pro-EGCG (1) at 10, 25, or 50 μM for 24 h, followed by measurement of proteasome inhibition and apoptotic cell death.
as §1
Human leukemia Jurkat T cells were treated with each compound at indicated concentration for indicated hours (see the figure legends for details), harvested, and lysed as described previously. Whole cell extracts were prepared as detailed in section 3.4, aliquoted and kept at −80 °C. One of the aliquots was used for determination of protein concentration. After that, whole cell extracts (10 μg) from each preparation were incubated with Suc-Leu-Leu-Val-Tyr-AMC (20 μM) fluorogenic substrate at 37°C in 100 μl of assay buffer (50 mM Tris-HCL, pH 7.5) for 2 h. After incubation, production of hydrolyzed 7-amino-4-methylcoumarin (AMC) groups was measured using a Victor^3 Multilabel Counter with an excitation filter of 380 nm and an emission filter of 460 nm (PerkinElmer, Boston, MA, USA).

[6] = test system: caspase-3/7 activities in Jurkat T cells; experiment: Caspase-3/7 activity in extracts of treated cells; type: cell-based, human; details: 50 μM, 24 h (dose-dependent experiment)
Experimental: as §2
Human leukemia Jurkat T cells were cultured in RPMI 1640 medium supplemented with 10% fetal calf serum, 100 units/mL of penicillin, and 100 μg/mL of streptomycin. Cells were maintained at 37 °C in a humidified incubator with an atmosphere of 5% CO2. […]
Cells were treated with each compound at indicated concentration for indicated hours, harvested, and lysed as described previously. Ac-DEVD-AMC (40 μM) was then incubated with the prepared cell lysates for 2 h and the caspase-3 activity was measured as described previously.

[7] = Jurkat T cells, 50 μM, 4, 8 and 24 h
[8] = Jurkat T cells, 10, 25 or 50 μM, 24 h

O=C(O[C@@H]1Cc2c(O)cc(O)cc2O[C@@H]1c1cc(O)c(O)c(O)c1)c1cc(O)c(O)c(O)c1 [(-)-EGCG, (-)-epigallocatechin-3-gallate, reference compound]
IC50 [1]: 680 nM

O=C(O[C@@H]1Cc2c(O)cc(O)cc2O[C@@H]1c1cc(O)c(O)c(O)c1)c1ccccc1F [F-EGCG1, (-)-(2R, 3R)-5,7-dihydroxy-2-(3,4,5-trihydroxyphenyl)chroman-3-yl 2-fluorobenzoate]
IC50 [1]: 1250 nM

O=C(O[C@@H]1Cc2c(O)cc(O)cc2O[C@@H]1c1cc(O)c(O)c(O)c1)c1cccc(F)c1 [F-EGCG2]
IC50 [1]: 840 nM

O=C(O[C@@H]1Cc2c(O)cc(O)cc2O[C@@H]1c1cc(O)c(O)c(O)c1)c1ccc(F)cc1 [F-EGCG3]
IC50 [1]: 1900 nM

O=C(O[C@@H]1Cc2c(O)cc(O)cc2O[C@@H]1c1cc(O)c(O)c(O)c1)c1ccc(F)c(F)c1 [F-EGCG4]
IC50 [1]: 650 nM

CC(=O)Oc1cc(OC(C)=O)c2c(c1)O[C@H](c1cc(OC(C)=O)c(OC(C)=O)c(OC(C)=O)c1)[C@H](OC(=O)c1cc(OC(C)=O)c(OC(C)=O)c(OC(C)=O)c1)C2 [Pro-EGCG (1), reference compound]
cell death (dead cells over total cell population) [2]: ~ 70% | anti-tumor activity compared with natural EGCG [3]: greater anti-tumor activity | cellular permeability and stability compared with natural EGCG [4]: significantly enhanced | p56 IκB-α (ubiquitinated form), Western blot (Jurkat T cells; Jurkat T cells, all the time points (4, 8, 24 h)): increased level | accumulation of ubiquitinated proteins, Western blot (Jurkat T cells; 24 h): accumulation of ubiquitinated proteins | proteasomal CT-like activity in treated cells [5, 7]: decrease in the level of the proteasomal CT-like activity in a time-dependent manner | proteasomal CT-like activity in treated cells [5, 8]: showed inhibition | caspase 3/7 activity, induction [6]: 6 fold

CC(=O)Oc1cc(OC(C)=O)c2c(c1)O[C@H](c1cc(OC(C)=O)c(OC(C)=O)c(OC(C)=O)c1)[C@H](OC(=O)c1ccccc1F)C2 [Pro-F-EGCG1, (-)-(2R, 3R)-5,7-Diacetoxy-2-(3,4,5-triacetoxyphenyl)chroman-3-yl 2-fluorobenzoate]
cell death (dead cells over total cell population) [2]: 44%

CC(=O)Oc1cc(OC(C)=O)c2c(c1)O[C@H](c1cc(OC(C)=O)c(OC(C)=O)c(OC(C)=O)c1)[C@H](OC(=O)c1cccc(F)c1)C2 [Pro-F-EGCG2, (-)-(2R, 3R)-5,7-Diacetoxy-2-(3,4,5-triacetoxyphenyl)chroman-3-yl 3-fluorobenzoate]
cell death (dead cells over total cell population) [2]: 90%

CC(=O)Oc1cc(OC(C)=O)c2c(c1)O[C@H](c1cc(OC(C)=O)c(OC(C)=O)c(OC(C)=O)c1)[C@H](OC(=O)c1ccc(F)cc1)C2 [Pro-F-EGCG3, (-)-(2R, 3R)-5,7-Diacetoxy-2-(3,4,5-triacetoxyphenyl)chroman-3-yl 4-fluorobenzoate]
cell death (dead cells over total cell population) [2]: 30%

CC(=O)Oc1cc(OC(C)=O)c2c(c1)O[C@H](c1cc(OC(C)=O)c(OC(C)=O)c(OC(C)=O)c1)[C@H](OC(=O)c1ccc(F)c(F)c1)C2 [Pro-F-EGCG4, (-)-(2R,3R)-5,7-Diacetoxy-2-(3,4,5-triacetoxyphenyl)chroman-3-yl 3,4-difluorobenzoate]
cell death (dead cells over total cell population) [2]: 90% | PARP cleavage fragment p85, Western blot (Jurkat T cells; [7]): detected | p56 IκB-α (ubiquitinated form), Western blot (Jurkat T cells; Jurkat T cells, 4 or 8 h): induced the appearance | p56 IκB-α (ubiquitinated form), Western blot (Jurkat T cells; Jurkat T cells, 24 h): not detected | accumulation of ubiquitinated proteins, Western blot (Jurkat T cells; 24 h): caused accumulation of ubiquitinated proteins in a dose-dependent manner | proteasomal CT-like activity in treated cells [5, 7]: decreased level | proteasomal CT-like activity in treated cells [5, 8]: inhibited the proteasomal CT-like activity in a dose-dependent manner
